In US20210283139A1, “BIFUNCTIONAL MOLECULES FOR TARGETING UCHL5” (AMPHISTA THERAPEUTICS LTD, priority 2018, published 2021):

Columns and labels:
Format in all cases: cell-based
Brd4 [1] = molecular target: T1, Brd4 (Homo sapiens, UniProt O60885); assay: Negative SAR: Brd4 immunoblot in HEK293 cells, active vs negative control; settings: HEK293, 1 μM, 6 h, three independent treatments
T1 construct: endogenous in cells; host or cells: HEK293, HAP1, MV4-11
Procedure: (§1) Immunoblotting. proteins were separated by SDS-PAGE on NuPage 4-12% Bis-Tris gels, followed by transfer to Amersham Protran 0.45 NC nitrocellulose membrane (GE Healthcare) using wet transfer. Membranes were blocked using 5% w/v milk in Tris-buffered saline (TBS) with 0.1% Tween-20. Blots were probed (overnight at 4° C.) using anti-Brd2 (Abcam ab139690, 1:2,000 dilution), anti-Brd3 (Abcam ab50818, 1:500 dilution), and anti-Brd4 (Abcam ab128874, 1:1,000 dilution) primary antibodies, as appropriate. The next day, blots were washed with TBST and incubated (1 hr at RT) with anti-Tubulin hFAB-rhodamine (BioRad, 12004166) primary antibody, and either anti-rabbit IRDye 800CW (Licor 1:10,000 dilution) or anti-mouse IRDye 800CW (Licor 1:10,000 dilution) secondary antibody. Blots were developed using a Bio-Rad ChemiDoc MP Imaging System, and band quantification was performed using Image Studio software (LiCor). Band intensities were normalized to the tubulin loading control and reported as % of the average 0.1% DMSO vehicle intensity. Degradation data was plotted and analysed using Prism (Graphpad, version 8).
HEK293 (1×10^6) cells incubated with DMSO, 1 μM 05IB11 or 1 μM 05IB6 for 6 h with a final DMSO concentration of 0.1% v/v. Cells from three independent treatments (n=3) were lysed with RIPA buffer and immunoblotted for Brd4 and β-tubulin.

Brd4 [2] = molecular target: T1, Brd4; assay: Proteasome dependency of Brd4 degradation in HEK293 cells (bortezomib pre-treatment); settings: 6 h
Procedure: as §1
(§2) HEK293 (1×10^6) cells were seeded in standard 6-well plates (2 mL medium) overnight before pre-treatment with 10 μM bortezomib. After a 0.5 h pre-incubation time, cells were subsequently treated with vehicle, 1 μM MZ1 or 1 μM 05IB6, yielding a final overall DMSO concentration of 0.2% v/v. After 6 h incubation, cells were washed with DPBS (Gibco) and lysed using 85 μL RIPA buffer (Sigma-Aldrich) supplemented with cOmplete Mini EDTA-free protease inhibitor cocktail (Roche) and benzonase. Lysates were clarified by centrifugation (20,000 g, 10 min, 4° C.) and the total protein content of the supernatant was quantified using a Bradford colorimetric assay. Samples were prepared using equal amounts of total protein and LDS sample buffer (Invitrogen).

Brd4 [3] = molecular target: T1, Brd4; assay: Immunoblot in MV4-11 cells; settings: MV4-11, 6 h, increasing concentrations
Procedure: (§3) MV4-11 (0.7×10^6 cells/mL) were seeded in 10 cm plates (10 mL DMEM supplemented with 10% FBS and L-glutamine) overnight before treatment with compounds at the desired concentration and with a final DMSO concentration of 0.1% v/v. After 6 h incubation time, cells were washed 2× with DPBS (Gibco) and lysed using 85 μL RIPA buffer (Sigma-Aldrich) supplemented with cOmplete Mini EDTA-free protease inhibitor cocktail (Roche) and benzonase. Lysates were clarified by centrifugation (20,000 g, 10 min, 4° C.) and the total protein content of the supernatant was quantified using a Bradford colorimetric assay. Samples were prepared using equal amounts of total protein and LDS sample buffer (Invitrogen). For immunoblot analysis, the following antibodies were used: anti-Brd2 (ab139690, 1:2,000 dilution), anti-Brd3 (ab50818, 1:500 dilution), anti-Brd4 (ab128874, 1:1,000 dilution), anti-c-myc (ab32072, 1:1,000 dilution), anti- total PARP (BD Bioscience #556494; 1:1,000 dilution), anti-cleaved PARP (CST-9541T, 1:1,000 dilution), and anti-Tubulin hFAB-rhodamine (BioRad, 12004166, 1:10,000 dilution).

c-MYC = assay: Immunoblot of c-MYC levels in MV4-11 cells; settings: MV4-11, 6 h
Procedure: as §3

Brd4 [4] = molecular target: T1, Brd4; assay: Mechanistic evaluation of Brd4 degradation in HAP1 cells (bortezomib, degrasyn or I-BET726 pre-treatment); settings: 6 h
Procedure: as §1
as §2, with “HAP1 (1×10^6)” for “HEK293 (1×10^6)”, “with inhibitors (10” for “with 10”, “μM bortezomib, 5 μM degrasyn or 1 μM I-BET726).” for “μM bortezomib.”, “vehicle, 0.1” for “vehicle, 1”, “or 0.1” for “or 1”, “μM 05IB9,” for “μM 05IB6,”
Representative blots from HAP1 lysates in FIG. 9 show depletion of Brd4 protein levels following 6 h treatment with 0.1 μM 05IB9 or MZ1, in the presence and absence of 5 μM degrasyn and 10 μM bortezomib. Brd4 band intensities were normalized to β-tubulin loading control and reported in FIG. 9B as % of the average 0.1% DMSO vehicle intensity. Each bar is mean±SEM of three independent experiments performed in duplicate (n=3). […] Furthermore, excess […] competes with 05IB9, resulting in reduced degradation of Brd4.

PARP = assay: Immunoblot of total and cleaved PARP in MV4-11 cells; settings: MV4-11, 6 h
Procedure: as §3

Brd4 [5] = molecular target: T1, Brd4; assay: Mechanistic evaluation of Brd4 degradation in HEK293 cells (degrasyn or I-BET726 pre-treatment); settings: 6 h
Procedure: as §1
as §2, with “with inhibitors (5” for “with 10”, “μM degrasyn or 1 μM I-BET726).” for “μM bortezomib.”, “vehicle, 0.1” for “vehicle, 1”, “or 0.1” for “or 1”, “μM 05IB9,” for “μM 05IB6,”

Compound | Brd4 levels (Brd4 [1]) | Brd4 degradation in the presence of bortezomib (Brd4 [2]; HEK293, 1 μM compound, 0.5 h pre-treatment with 10 μM bortezomib) | Brd4 protein levels (Brd4 [2]; HEK293, 1 μM) | Brd4 levels (Brd4 [3]) | decrease in c-MYC compared with inhibitor and negative control (c-MYC) | c-MYC levels (c-MYC; increasing concentrations) | Brd4 degradation in the presence of bortezomib or degrasyn (Brd4 [4]; HAP1, 0.1 μM compound, 0.5 h pre-treatment with 10 μM bortezomib or 5 μM degrasyn) | Brd4 protein levels (Brd4 [4]; HAP1, 0.1 μM) | increase in C-PARP compared with inhibitor and negative control (PARP) | cleaved PARP (PARP; increasing concentrations) | total PARP levels (PARP; increasing concentrations) | Brd4 degradation in the presence of degrasyn or I-BET726 (Brd4 [5]; HEK293, 0.1 μM compound, 0.5 h pre-treatment with 5 μM degrasyn or 1 μM I-BET726) | Brd4 protein levels (Brd4 [5]; HEK293, 0.1 μM)
CCCC(NC(=O)/C(C#N)=C/c1cccc(Br)n1)c1ccc(OCCOCCOCCOCCOCCOCCOCCNC(=O)c2ccc(-c3ccc4c(c3)[C@H](Nc3ccc(Cl)cc3)C[C@H](C)N4C(C)=O)cc2)cc1 (stereo partly shown) [Example 05IB6] | significant depletion | completely blocked | depletion |  |  |  |  |  |  |  |  |  | 
CCCC(NC(=O)/C(C#N)=C/c1nccs1)c1ccc(OCCOCCOCCOCCOCCOCCOCCNC(=O)c2ccc(-c3ccc4c(c3)[C@H](Nc3ccc(Cl)cc3)C[C@H](C)N4C(C)=O)cc2)cc1 (stereo partly shown) [Example 05IB9] |  |  |  | depletion | greater than inhibitor (I-BET726) alone and the negative control (05IB11) | depletion | completely blocked in the presence of bortezomib and degrasyn | depletion | greater than inhibitor (I-BET726) alone and the negative control (05IB11) | increase | depletion | completely blocked in the presence of either degrasyn or I-BET726 | depletion
